Assay results from patent US10028990B2, “Functional foods and beverages with synergistic properties to promote homeostasis” (JUSTBIO INC., priority 2011, dated 2018).
Residues, ends and D or L forms follow the SMILES beside them.

Key:
[1] = ORAC (Oxygen Radical Absorbance Capacity) test; conditions: FIG. 46; combined with maple syrup
Procedure: The antioxidant capacity of formulations and beverages was determined with the ORAC (Oxygen Radical Absorbance Capacity) test. ORAC assays were performed as previously described (Prior et al, 2005). […] These free radicals are generated by the exposition of flurorescein to AAPH. […] The oxidation process is a kinetic reaction that is measured fluorescence levels (excitation: 485 nm, emission: 528 nm) over time using a Synergy HT (Biotek) microplate reader. Area under the curves (AUC) from each compound tested are calculated and compared to the blank and the control of reference the vitamin E analog 6-Hydroxy-2,5,7,8 Teramethylchromane-2-carboxylic acid (Trolox). ORAC values are expressed as μmol of Trolox equivalent per ml (μmol TE/ml) of compound tested.

[2] = tested on: SH-SY5Y neurons; test: ROS production by dopaminergic SH-SY5Y neurons exposed to supernatant of Cal27 cells; assay type: cell-based, Human
Procedure: (§1) Cellular ROS levels were obtained by measuring the oxidation of CM-H2DCFDA (5-(and 6)-chlromethyl-20,70-dichlorodihydrofluresceindiacetate; Invitrogen) a cell-permeant indicator. Cal27, HEK 293 and SH-SY5Y were plated in 96 well plates at a cell density of 25000 cells per well. Cells were treated for 1 hour with 5 μM CM-H2DCFDA. After removing the CDFDA solution, cells were treated with various adaptogenic formulations prepared with ROS buffer (HBSS containing 2% FBS). After 30 min of exposure with samples, a first reading was taken using the synergy HT (Biotek) plate reader. Various concentrations of AAPH (100 mM, 40 mM, 16 mM, 6.4 mM and 2.5 mM) were then added, and readings (excitation: 485 nm, emission: 530 nm) were taken every 30 minutes for 2 hours. The fluorescence intensity is an indicator of H2O2 intracellular level so values are expressed in Relative Fluorescence Unit (RFU).
This assay mimics the impact of mucosal cells on subepithelial neuronal cells.

[3] = biological target: T1, TLR2 (Homo sapiens, UniProt O60603+Q15399); test: TLR2 activation with Pam3Cys in Cal27 cells under low or high oxidative stress; assay type: cell-based; conditions: FIG. 34, Pam3Cys 500 ng/ml
T1 construct: TLR2-dependent ROS production in Cal27 exposed for 30 minutes to various concentrations of AAPH; host or cells: CAL27
T1 sequence (O60603 21-784): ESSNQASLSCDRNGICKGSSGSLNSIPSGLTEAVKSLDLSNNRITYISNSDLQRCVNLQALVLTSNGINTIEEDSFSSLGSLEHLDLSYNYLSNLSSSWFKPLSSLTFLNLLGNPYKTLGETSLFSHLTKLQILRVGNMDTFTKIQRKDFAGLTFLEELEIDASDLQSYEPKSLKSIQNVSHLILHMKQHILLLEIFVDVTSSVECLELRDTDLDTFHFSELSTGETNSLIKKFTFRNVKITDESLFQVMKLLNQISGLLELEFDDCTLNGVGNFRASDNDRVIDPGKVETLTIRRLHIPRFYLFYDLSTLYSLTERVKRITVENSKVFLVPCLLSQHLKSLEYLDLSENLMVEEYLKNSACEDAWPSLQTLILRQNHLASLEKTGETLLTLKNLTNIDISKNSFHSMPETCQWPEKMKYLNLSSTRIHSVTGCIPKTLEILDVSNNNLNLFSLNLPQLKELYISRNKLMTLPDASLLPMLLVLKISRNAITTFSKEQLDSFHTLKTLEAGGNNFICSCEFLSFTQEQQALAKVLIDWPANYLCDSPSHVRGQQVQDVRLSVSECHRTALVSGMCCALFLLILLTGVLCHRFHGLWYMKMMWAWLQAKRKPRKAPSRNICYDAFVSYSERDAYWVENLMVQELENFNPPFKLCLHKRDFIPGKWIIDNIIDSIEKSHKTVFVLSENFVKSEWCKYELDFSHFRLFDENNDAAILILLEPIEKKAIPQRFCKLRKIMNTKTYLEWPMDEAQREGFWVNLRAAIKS
T1 sequence (Q15399 25-786): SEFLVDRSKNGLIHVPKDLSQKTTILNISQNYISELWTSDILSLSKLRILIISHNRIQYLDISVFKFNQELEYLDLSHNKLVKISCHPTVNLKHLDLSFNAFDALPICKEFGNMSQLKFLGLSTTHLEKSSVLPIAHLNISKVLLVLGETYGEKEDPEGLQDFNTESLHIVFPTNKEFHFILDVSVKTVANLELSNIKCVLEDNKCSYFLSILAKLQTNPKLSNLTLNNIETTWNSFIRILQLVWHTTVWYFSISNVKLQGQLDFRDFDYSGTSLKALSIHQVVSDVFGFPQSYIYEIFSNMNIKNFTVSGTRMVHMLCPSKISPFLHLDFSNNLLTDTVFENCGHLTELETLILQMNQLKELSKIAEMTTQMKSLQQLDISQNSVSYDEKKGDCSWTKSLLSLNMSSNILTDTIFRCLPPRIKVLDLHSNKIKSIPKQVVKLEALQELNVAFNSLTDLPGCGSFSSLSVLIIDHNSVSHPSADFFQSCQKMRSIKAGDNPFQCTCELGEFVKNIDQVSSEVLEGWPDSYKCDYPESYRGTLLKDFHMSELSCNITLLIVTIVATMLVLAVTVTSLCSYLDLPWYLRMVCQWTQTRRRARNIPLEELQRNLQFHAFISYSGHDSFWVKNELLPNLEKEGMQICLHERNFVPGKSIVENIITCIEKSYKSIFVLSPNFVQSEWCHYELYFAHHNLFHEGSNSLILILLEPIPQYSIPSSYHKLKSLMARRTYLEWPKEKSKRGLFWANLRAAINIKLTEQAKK
Procedure: Cell lines (CAL27, SH-SY5Y) used for this assay were plated in plaque assays at a density of 50,000-100,000 cells per well. Colorimetric MTT (3-(4,5-dimethylthiazol-2-yl)-2,5-diphenyl tetrazolium bromide) was dissolved in HBSS buffer to obtain a final concentration of 0.5 mg/ml per well. Cell plates were incubated for 2 hours at 37° C. Conditioned medium was then removed, and acid-isopropanol (0.04N HCl in isopropanol) was added to all wells. HCL was used as positive control to induce cell death. Plates were read at 530 nm/630 nm in a Synergy Biotek machine. […] This method is an adaptation of a previously described assay (Mossman, 1983).
All cell lines were obtained from the American Type Culture Collection (ATCC, Manassas, US). In some experiments, cells were transferred to a 96 wells plate and treated with different concentration of TLR2 agonist synthetic triacylated lipoprotein PAM3CSK4 (InvivoGen) starting by 500 ng/ml final concentration to activate TLR2.
as §1
ATP intracellular levels were measured from whole cell lysates obtained through a freeze-thaw cycle, whereas ATP secreted from cells were measured from conditioned cell culture supernatants. Both intracellular and secreted ATP using measured using an ATP determination kit purchased from Invitrogen (Molecular Probes). ATP levels were detected at luminescence 560 nm. ATP levels were normalized to untreated control and were expressed as % ATP levels.

For `C=C1C[C@@]23CC[C@H]4[C@@](C)(CCC[C@@]4(C)C(=O)O[C@@H]4O[C@H](CO)[C@@H](O)[C@H](O)[C@H]4O)[C@@H]2CC[C@]1(O[C@@H]1O[C@H](CO)[C@@H](O)[C@H](O[C@@H]2O[C@H](CO)[C@@H](O)[C@H](O)[C@H]2O)[C@H]1O[C@@H]1O[C@H](CO)[C@@H](O)[C@H](O)[C@H]1O)C3` [Rebaudiside A, Rebaudioside A], which “synergy in combination with maple syrup (ORAC versus sum of SE+ingredient)” value (shortened to “synergy … (ORAC versus sum of SE+ingredient)”) [1] is on record?
Its value is “act in synergy”.

Which “synergy … (ORAC versus sum of SE+ingredient)” value [1] does the source give for `COC(=O)[C@H](Cc1ccccc1)NC(=O)[C@@H](N)CC(=O)O` [aspartame] (H-Asp-Phe-OMe) here?
The value was “does not create this synergy”.

For `C=C1C[C@@]23CC[C@H]4[C@@](C)(CCC[C@@]4(C)C(=O)O[C@@H]4O[C@H](CO)[C@@H](O)[C@H](O)[C@H]4O)[C@@H]2CC[C@]1(O[C@@H]1O[C@H](CO)[C@@H](O)[C@H](O)[C@H]1O[C@@H]1O[C@H](CO)[C@@H](O)[C@H](O)[C@H]1O)C3` [stevioside], which “synergy … (ORAC versus sum of SE+ingredient)” value [1] is on record?
The value was “act in synergy”.

With `OC[C@H]1O[C@H](O[C@]2(CCl)O[C@H](CCl)[C@@H](O)[C@@H]2O)[C@H](O)[C@@H](O)[C@H]1Cl` [sucralose] as the molecule, how does the “synergy … (ORAC versus sum of SE+ingredient)” value [1] read?
Its value is “does not create this synergy”.

With Pam3Cys as the molecule, how does the “ROS production by dopaminergic neurons upon TLR2 activation of Cal27 cells” value ([2]; FIG. 37, 50 ng/ml of Pam3Cys) read?
The value was “reduce ROS production”.

What about the “neuroprotective role upon TLR2 activation of Cal27 cells” value ([2]; higher dose of Pam3Cys (250 or 500 ng/ml)) of the same molecule?
The value was “did not have this neuroprotective role”.

And the “impact on ROS production” value ([3]; 6.4 mM and 16 mM AAPH)?
Its value is “no significant impact”.

And the “impact on mitochondrial activity” value ([3]; 6.4 mM and 16 mM AAPH)?
Its value is “no significant impact”.

What about the ATP secretion ([3]; cells without AAPH) of the same molecule?
The ATP secretion was “slightly increased ATP secretion”.

What about the ATP production ([3]; high oxidative stress (16 mM AAPH)) of the same molecule?
The ATP production was “increases ATP production”.
